Data reported in patent publication US20040109896A1, “Aqueous suspension eyedrops and process for producing the same” (priority 2001, published 2004).

Experiments:
[1] = Laser diffraction particle size distribution analysis of acyclovir fine crystals; type: physicochemical; settings: USP grade sterilized acyclovir fine crystals
Experimental: USP grade, sterilized acyclovir was used as fine crystals of acyclovir without any processing. Through laser diffraction particle size distribution analysis, the crystals were determined to have an average particle size of 25.9 μm.

[2] = test system: herpes virus; settings: Crumpaker et al., Antimicrob. Agents Chemother. 15, 642 (1979); cited from earlier work

Nc1nc2c(ncn2COCCO)c(=O)[nH]1 [acyclovir, 9-[(2-hydroxyethoxy)methyl]guanine]
average particle size [1]: 25.9 μm | ID50 (50% inhibition level) of acyclovir against herpes virus [2]: approximately 0.03 μg/mL
